Experimental data as given in US8802597B2, “Herbicidal pyrimidines” (E I du Pont de Nemours and Company, priority 2003, dated 2014).

Tests used:
Format in all cases: in vivo
[1] = system: blackgrass (Alopecurus myosuroides); experiment: Test B postemergence; conditions: for Blackgrass plant response rating: 125 g ai/ha, scale 0 to 100 (0 no effect, 100 complete control); for Plant response rating, Blackgrass: 500 g ai/ha, scale 0 to 100
Excerpt: (§1) Seeds selected from barnyardgrass (Echinochloa crus-galli), Surinam grass (Brachiaria decumbens), cocklebur (Xanthium strumarium), corn (Zea mays), crabgrass (Digitaria sanguinalis), giant foxtail (Setaria faberii), lambsquarters (Chenopodium album), morningglory (Ipomoea coccinea), pigweed (Amaranthus retroflexus), velvetleaf (Abutilon theophrasti), and wheat (Triticum aestivum) were planted and treated preemergence with test chemicals formulated in a non-phytotoxic solvent mixture which included a surfactant.
(§2) At the same time, plants selected from these crop and weed species and also blackgrass (Alopecurus myosuroides) and wild oat (Avena fatua) were treated with postemergence applications of test chemicals formulated in the same manner. Plants ranged in height from 2 to 18 cm (1- to 4-leaf stage) for postemergence treatments. Plant species in the flooded paddy test consisted of rice (Oryza sativa), umbrella sedge (Cyperus difformis), duck salad (Heteranthera limosa) and barnyardgrass (Echinochloa crus-galli) grown to the 2-leaf stage for testing. Treated plants and controls were maintained in a greenhouse for 13 to 15 days, after which time all species were compared to controls and visually evaluated. Plant response ratings, summarized in Table B, are based on a scale of 0 to 100 where 0 is no effect and 100 is complete control. A dash (-) response means no test result.

wild oat (Avena fatua) = experiment: Test B postemergence; conditions: for Oat, Wild plant response rating: 125 g ai/ha, scale 0 to 100 (0 no effect, 100 complete control); for Plant response rating, Oat, Wild: 500 g ai/ha, scale 0 to 100
Excerpt: as §1, §2

[2] = system: wheat (Triticum aestivum); experiment: Test B pre/postemergence
Excerpt: as §1, §2

[3] = system: lambsquarters (Chenopodium album); experiment: Test B pre/postemergence; conditions: Postemergence; for Lambsquarters plant response rating: 125 g ai/ha, scale 0 to 100 (0 no effect, 100 complete control); for Plant response rating, Lambsquarters: 500 g ai/ha, scale 0 to 100
Excerpt: as §1, §2

[4] = system: velvetleaf (Abutilon theophrasti); experiment: Test B pre/postemergence
Excerpt: as §1, §2

[5] = system: cocklebur (Xanthium strumarium); experiment: Test B pre/postemergence
Excerpt: as §1, §2

[6] = system: giant foxtail (Setaria faberii); experiment: Test B pre/postemergence
Excerpt: as §1, §2

[7] = system: Surinam grass (Brachiaria decumbens); experiment: Test B pre/postemergence
Excerpt: as §1, §2

[8] = system: barnyardgrass (Echinochloa crus-galli); experiment: Test B pre/postemergence
Excerpt: as §1, §2

[9] = system: morningglory (Ipomoea coccinea); experiment: Test B pre/postemergence
Excerpt: as §1, §2

corn (Zea mays) = experiment: Test B pre/postemergence
Excerpt: as §1, §2

[10] = system: pigweed (Amaranthus retroflexus); experiment: Test B pre/postemergence
Excerpt: as §1, §2

[11] = system: crabgrass (Digitaria sanguinalis); experiment: Test B pre/postemergence
Excerpt: as §1, §2

[12] = Postemergence, 125 g ai/ha, scale 0 to 100 (0 no effect, 100 complete control)
[13] = Postemergence, 500 g ai/ha, scale 0 to 100
[14] = Preemergence, 125 g ai/ha, scale 0 to 100 (0 no effect, 100 complete control)
[15] = Preemergence, 500 g ai/ha, scale 0 to 100 (0 no effect, 100 complete control)

CCOC(=O)c1nc(C2CC2)nc(NOCc2ccccc2)c1Br [Compound 54]
100: Plant response rating, Pigweed [10, 14] | Plant response rating, Pigweed [10, 15]
0: Oat, Wild plant response rating (wild oat (Avena fatua)) | Wheat plant response rating [2, 12] | Plant response rating, Wheat [2, 14] | Plant response rating, Wheat [2, 15] | Plant response rating, Foxtail, Giant [6, 14] | Plant response rating, Foxtail, Giant [6, 15] | Surinam Grass plant response rating [7, 12] | Plant response rating, Surinam Grass [7, 13] | Plant response rating, Surinam Grass [7, 14] | Plant response rating, Surinam Grass [7, 15] | Barnyardgrass plant response rating [8, 12] | Plant response rating, Barnyardgrass [8, 14] | Plant response rating, Morningglory [9, 14] | Corn plant response rating (corn (Zea mays); [12]) | Plant response rating, Corn (corn (Zea mays); [14]) | Plant response rating, Corn (corn (Zea mays); [15]) | Plant response rating, Crabgrass [11, 14] | Plant response rating, Crabgrass [11, 15]
60: Plant response rating, Velvetleaf [4, 13]
70: Plant response rating, Barnyardgrass [8, 13]
50: Velvetleaf plant response rating [4, 12] | Plant response rating, Cocklebur [5, 14]
90: Plant response rating, Lambsquarters [3] | Plant response rating, Cocklebur [5, 15] | Plant response rating, Morningglory [9, 13] | Plant response rating, Pigweed [10, 13]
40: Blackgrass plant response rating [1] | Plant response rating, Blackgrass [1] | Plant response rating, Oat, Wild (wild oat (Avena fatua)) | Plant response rating, Barnyardgrass [8, 15]
10: Plant response rating, Velvetleaf [4, 14]
30: Plant response rating, Foxtail, Giant [6, 13] | Plant response rating, Crabgrass [11, 13]
80: Lambsquarters plant response rating [3] | Plant response rating, Velvetleaf [4, 15] | Plant response rating, Cocklebur [5, 13] | Morningglory plant response rating [9, 12] | Pigweed plant response rating [10, 12]
20: Plant response rating, Wheat [2, 13] | Cocklebur plant response rating [5, 12] | Foxtail, Giant plant response rating [6, 12] | Plant response rating, Corn (corn (Zea mays); [13]) | Crabgrass plant response rating [11, 12]

CCOC(=O)c1nc(C2CC2)nc(NOCC(=O)O)c1Br [Compound 125]
40: Cocklebur plant response rating [5, 12] | Plant response rating, Foxtail, Giant [6, 13]
100: Plant response rating, Morningglory [9, 15] | Plant response rating, Crabgrass [11, 15]
50: Plant response rating, Velvetleaf [4, 13]
20: Plant response rating, Blackgrass [1] | Plant response rating, Oat, Wild (wild oat (Avena fatua)) | Crabgrass plant response rating [11, 12]
90: Plant response rating, Velvetleaf [4, 15] | Plant response rating, Cocklebur [5, 15] | Plant response rating, Morningglory [9, 13] | Plant response rating, Pigweed [10, 15]
60: Lambsquarters plant response rating [3] | Plant response rating, Cocklebur [5, 13] | Pigweed plant response rating [10, 12] | Plant response rating, Pigweed [10, 13]
70: Plant response rating, Lambsquarters [3] | Plant response rating, Barnyardgrass [8, 13] | Morningglory plant response rating [9, 12]
10: Plant response rating, Velvetleaf [4, 14] | Plant response rating, Surinam Grass [7, 13]
0: Blackgrass plant response rating [1] | Oat, Wild plant response rating (wild oat (Avena fatua)) | Wheat plant response rating [2, 12] | Plant response rating, Wheat [2, 13] | Plant response rating, Wheat [2, 14] | Plant response rating, Wheat [2, 15] | Velvetleaf plant response rating [4, 12] | Foxtail, Giant plant response rating [6, 12] | Plant response rating, Foxtail, Giant [6, 14] | Plant response rating, Foxtail, Giant [6, 15] | Surinam Grass plant response rating [7, 12] | Plant response rating, Surinam Grass [7, 14] | Plant response rating, Surinam Grass [7, 15] | Barnyardgrass plant response rating [8, 12] | Plant response rating, Barnyardgrass [8, 14] | Corn plant response rating (corn (Zea mays); [12]) | Plant response rating, Corn (corn (Zea mays); [13]) | Plant response rating, Corn (corn (Zea mays); [14]) | Plant response rating, Corn (corn (Zea mays); [15]) | Plant response rating, Crabgrass [11, 14]
30: Plant response rating, Cocklebur [5, 14] | Plant response rating, Morningglory [9, 14] | Plant response rating, Pigweed [10, 14] | Plant response rating, Crabgrass [11, 13]

CCOC(=O)c1nc(C2CC2)nc(NOC)c1Br [Compound 52]
100: Plant response rating, Morningglory [9, 15]
60: Plant response rating, Cocklebur [5, 13] | Plant response rating, Cocklebur [5, 15] | Plant response rating, Foxtail, Giant [6, 13] | Plant response rating, Corn (corn (Zea mays); [13]) | Pigweed plant response rating [10, 12] | Plant response rating, Crabgrass [11, 13]
50: Plant response rating, Blackgrass [1] | Plant response rating, Velvetleaf [4, 13] | Plant response rating, Pigweed [10, 15]
90: Plant response rating, Lambsquarters [3] | Morningglory plant response rating [9, 12] | Plant response rating, Morningglory [9, 13] | Plant response rating, Pigweed [10, 13]
20: Plant response rating, Oat, Wild (wild oat (Avena fatua)) | Plant response rating, Wheat [2, 13]
0: Blackgrass plant response rating [1] | Oat, Wild plant response rating (wild oat (Avena fatua)) | Wheat plant response rating [2, 12] | Plant response rating, Wheat [2, 14] | Plant response rating, Wheat [2, 15] | Plant response rating, Velvetleaf [4, 14] | Plant response rating, Foxtail, Giant [6, 14] | Plant response rating, Foxtail, Giant [6, 15] | Surinam Grass plant response rating [7, 12] | Plant response rating, Surinam Grass [7, 14] | Plant response rating, Surinam Grass [7, 15] | Plant response rating, Barnyardgrass [8, 14] | Corn plant response rating (corn (Zea mays); [12]) | Plant response rating, Corn (corn (Zea mays); [15]) | Crabgrass plant response rating [11, 12] | Plant response rating, Crabgrass [11, 14] | Plant response rating, Crabgrass [11, 15]
10: Plant response rating, Cocklebur [5, 14] | Plant response rating, Morningglory [9, 14]
30: Plant response rating, Velvetleaf [4, 15] | Plant response rating, Surinam Grass [7, 13] | Barnyardgrass plant response rating [8, 12] | Plant response rating, Barnyardgrass [8, 15]
40: Velvetleaf plant response rating [4, 12] | Cocklebur plant response rating [5, 12] | Foxtail, Giant plant response rating [6, 12]
80: Lambsquarters plant response rating [3] | Plant response rating, Barnyardgrass [8, 13]

CCOC(=O)c1nc(C2CC2)nc(N2CCCC2)c1Br [Compound 56]
20: Plant response rating, Blackgrass [1] | Plant response rating, Oat, Wild (wild oat (Avena fatua)) | Lambsquarters plant response rating [3] | Plant response rating, Cocklebur [5, 13] | Plant response rating, Morningglory [9, 15]
30: Plant response rating, Lambsquarters [3] | Plant response rating, Velvetleaf [4, 15] | Plant response rating, Cocklebur [5, 15] | Plant response rating, Barnyardgrass [8, 13]
70: Plant response rating, Pigweed [10, 13]
50: Plant response rating, Morningglory [9, 13] | Pigweed plant response rating [10, 12]
0: Blackgrass plant response rating [1] | Oat, Wild plant response rating (wild oat (Avena fatua)) | Wheat plant response rating [2, 12] | Plant response rating, Wheat [2, 13] | Plant response rating, Wheat [2, 14] | Plant response rating, Wheat [2, 15] | Velvetleaf plant response rating [4, 12] | Plant response rating, Velvetleaf [4, 13] | Plant response rating, Velvetleaf [4, 14] | Cocklebur plant response rating [5, 12] | Plant response rating, Cocklebur [5, 14] | Foxtail, Giant plant response rating [6, 12] | Plant response rating, Foxtail, Giant [6, 13] | Plant response rating, Foxtail, Giant [6, 14] | Plant response rating, Foxtail, Giant [6, 15] | Surinam Grass plant response rating [7, 12] | Plant response rating, Surinam Grass [7, 13] | Plant response rating, Surinam Grass [7, 14] | Plant response rating, Surinam Grass [7, 15] | Barnyardgrass plant response rating [8, 12] | Plant response rating, Barnyardgrass [8, 14] | Plant response rating, Barnyardgrass [8, 15] | Morningglory plant response rating [9, 12] | Corn plant response rating (corn (Zea mays); [12]) | Plant response rating, Corn (corn (Zea mays); [13]) | Plant response rating, Corn (corn (Zea mays); [14]) | Plant response rating, Corn (corn (Zea mays); [15]) | Crabgrass plant response rating [11, 12] | Plant response rating, Crabgrass [11, 13] | Plant response rating, Crabgrass [11, 14] | Plant response rating, Crabgrass [11, 15]
80: Plant response rating, Pigweed [10, 15]
